We go through three molecules from publication PMC7466295, “An Absorption and Plasma Kinetics Study of Monoterpenes Present in Mastiha Oil in Humans” (Foods, 2020).

Data set [1] is described as follows: Postprandial plasma kinetics of monoterpenes after a single dose of Mastiha Oil (GC-MS-MS). It is filed as in vivo, human. The conditions noted are these: for Time of first detection in plasma: human plasma after 1 mL MO; for Area Under Curve: 1 mL MO oral single dose, linear trapezoidal method; for concentration at 4 h: 4 h after 1 mL MO; for concentration at 24 h: 24 h after 1 mL MO; for Cmax / Tmax: healthy males, 1 mL MO oral single dose after overnight fasting. The source says: An open label intervention trial was designed to assess the postprandial plasma levels of the main monoterpenes present in MO and their effect in antioxidant capacity. A kinetic approach was applied. Fifty apparently healthy male adults were screened. Ten volunteers were found eligible to the study according to specific criteria (Table 1). Eligible subjects were informed about the aims, methodology, expected effect and any risk from the Information Leaflet of the study, before signing an Informed Consent. The investigator explained that participation was voluntary and participants received a copy of the signed Informed Consent.
A Thermo Ultra GC-Thermo XLS Quantum GC-MS-MS Triple Quad with a DB-5 ms 30 × 0.25 × 0.25 capillary column (Merck KGaA, Darmstadt, Germany) was used. The sample was injected using a Programmed Temperature Vaporizing (PTV) injector that allows concentration of samples, using an automated sampler. Injection volume was 1 µL.
To be able to determine low ppb levels, a GC-MS-MS technique was performed. Signal to noise improves radically compared to traditional GC-MS methods. Full scan MS-MS was first employed in analytical standards which run individually to determine the parent and daughter ions and retention times were validated with the use of analytical standards which run individually.
Initial temperature was held at 50 °C for 2 min. Then temperature was ramped to 60 °C with a rate of 5 °C/min. The temperature reached 270 °C at a rate of 7 °C/min. Injector temperature was set at 250 °C. The splitless injected volume was 1 µL. At 1.2 min the splitless valve switched.
The MS-MS conditions were as follows: Parent Ion was m/z 93 and daughter ions were 91 and 77 for all compounds. Collision energy was set at 8 V and collision gas pressure was 1.5 mTorr. MS-MS scan time was set at 0.15 s. The peak width was maintained at 0.7 amu.
For sample preparation, a 1:1 mixture of ethyl-acetate:hexane was used and equal volumes of blood plasma and extractant were put in centrifuge tubes and vortexed for 20 min. The samples were then centrifuged and filtrated before injection.
To be able to determine low ppb levels, a GC-MS-MS technique was performed, which, compared to traditional GC-MS methods, improves signal to noise values and thus sensitivity in the identification of compounds. Full scan MS-MS was first employed in analytical standards which run individually to determine the parent and daughter ions of the three terpenes and their retention times. Identification of chromatographic peaks was accomplished by using the parent ion and most abundant daughter ion of each compound and comparing the retention times with those of reference standards. For quantification, blank plasma samples (collected prior to MO administration) were spiked with standard monoterpene solutions ([…]), and were treated identically to the samples, since the standard addition method used eliminates the matrix effect. The standard monoterpene solutions were prepared in ethyl acetate in the range 2–2000 μg/L by diluting stock solutions (1 mg/mL). In all preliminary tests the average recovery for the monoterpenes studied was >80% and the detection limit was 0.02 µg/L.
The maximum concentrations of monoterpenes (Cmax) and the time intervals (Tmax) were obtained from each participant’s plasma concentration–time curve. The area under the plasma concentration–time curve (AUC) was analysed using the Linear Trapezoidal method.

On the set-up of data set [2]: method as in PMID 29197300. The note with it: rats, oral administration; cited from earlier work.
The mark [3] stands for this setting: male, oral, human plasma, mean ± SEM.

What is called Cmax is the peak of the concentration-time curve. The Tmax is the time at which the peak concentration occurs. Regarding `CC1=CCC2CC1C2(C)C` (stereo not drawn) [α-Pinene, α-pinene], the “Time of first detection in plasma” value in data set [1] is on record as 0.5 h. In addition, the “Area Under Curve” value in data set [1] (human plasma, mean ± SEM) was 7865.2 ± 5547.3 ng·h/mL. For the same molecule, in data set [1] (setting [3]), the concentration at 4 h stood at 839 ± 189 ng/mL and the concentration at 24 h was found to be 80.6 ± 7.3 ng/mL. In data set [1] (male, human plasma, mean ± SEM), the Cmax stood at 915 ± 551 ng/mL and the Tmax was found to be 3.8 ± 1.2 h. For the same molecule, in data set [2], the “Time at which bioavailable in plasma” value is on record as 0.17 h and the “Time of peak concentration in plasma” value is given as 2.5 h.
Turning to `C=C1CCC2CC1C2(C)C` (stereo not drawn) [β-Pinene, β-pinene], in data set [1], the “Time of first detection in plasma” value turned out to be 0.5 h. The “Area Under Curve” value in data set [1] (human plasma, mean ± SEM) is 164.0 ± 110.8 ng·h/mL. In data set [1] (setting [3]), this molecule yielded a concentration at 4 h of 16.7 ± 3.5 ng/mL and a concentration at 24 h of 2.1 ± 0.3 ng/mL. In data set [1] (male, human plasma, mean ± SEM), the concentration peaked (Cmax) at 18 ± 10.7 ng/mL and the Tmax was 3.6 ± 0.9 h.
Consider `C=CC(=C)CCC=C(C)C` [Myrcene, myrcene], for which, in data set [1], the “Time of first detection in plasma” value is 0.5 h. Besides, the “Area Under Curve” value in data set [1] (human plasma, mean ± SEM) worked out at 15318.0 ± 7313.3 ng·h/mL. Besides, the concentration at 0.5 h in data set [1] (male, oral, human plasma, 0.5 h after 1 mL MO, mean ± SEM) was determined as 775 ± 64 ng/mL. This molecule also registered a concentration at 2 h in data set [1] (male, oral, human plasma, 2 h after 1 mL MO, mean ± SEM) of 906 ± 44.6 ng/mL. In addition, the concentration at 24 h in data set [1] (setting [3]) was 648 ± 60.3 ng/mL. In addition, in data set [1] (male, human plasma, mean ± SEM), the Cmax amounted to 967 ± 89.7 ng/mL and the Tmax turned out to be 2.2 ± 1.7 h.
